Data as given in US20250296959A1, “B7-H3 TARGETING PEPTIDES AND CONSTRUCTS THEREOF” (Mariana Oncology Inc., priority 2024, published 2025).
Starred links: 1 amine or outer side, 2 acyl side, 3 side chain; linkers in the order of their positions; H or OH if unused. Positions of bridges follow the written chain, without caps; N, C: chain ends. Non-standard residues stand in square brackets, D forms with d. Residues, ends and D or L forms follow the SMILES beside them. *: point of attachment. DOTA = O=C(O)CN1CCN(CC(=O)O)CCN(CC(=O)*)CCN(CC(=O)O)CC1; X5 = O=C(O)CC1CCN(CC(=O)O)CCN(CC(=O)O)CCN(CC(=O)*)CC1; NH(CH2CH2O)4CH2CO = O=C(COCCOCCOCCOCCN[*:1])[*:2]; Tyr(SO2F) = N[C@@H](Cc1ccc(OS(=O)(=O)F)cc1)C(=O)O; Trp(5-F) = N[C@@H](Cc1c[nH]c2ccc(F)cc12)C(=O)O; Ala(4-THP) = N[C@@H](CC1CCOCC1)C(=O)O; Val(3-OH) = CC(C)(O)[C@H](N)C(=O)O; Tle = CC(C)(C)[C@H](N)C(=O)O; hLeu = CC(C)CC[C@H](N)C(=O)O; Nle = CCCC[C@H](N)C(=O)O

These compounds were tested against T1, human 4lg B7-H3 (Homo sapiens, UniProt Q5ZPR3) (assay: Affinity determination by surface plasmon resonance (SPR) to 4Ig B7-H3). Details: not given.
T1 sequence (Q5ZPR3 29-534): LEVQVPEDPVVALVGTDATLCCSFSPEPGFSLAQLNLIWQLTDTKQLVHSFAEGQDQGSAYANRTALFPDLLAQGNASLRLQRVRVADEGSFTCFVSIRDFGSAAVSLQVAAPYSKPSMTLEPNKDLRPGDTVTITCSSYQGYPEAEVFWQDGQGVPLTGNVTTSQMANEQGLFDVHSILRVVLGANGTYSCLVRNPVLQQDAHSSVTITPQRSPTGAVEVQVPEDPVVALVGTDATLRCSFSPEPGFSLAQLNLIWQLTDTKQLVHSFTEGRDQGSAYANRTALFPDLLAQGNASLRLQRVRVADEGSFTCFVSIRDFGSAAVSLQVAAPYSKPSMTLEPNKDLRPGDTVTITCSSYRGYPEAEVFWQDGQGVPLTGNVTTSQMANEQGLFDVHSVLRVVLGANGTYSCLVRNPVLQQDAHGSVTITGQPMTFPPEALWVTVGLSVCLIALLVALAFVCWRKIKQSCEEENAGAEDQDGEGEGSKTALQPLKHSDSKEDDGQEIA
For `CC(=O)N[C@@H](CCC(C)C)C(=O)N[C@@H](Cc1ccc(O)cc1)C(=O)N[C@H]1CSSC[C@@H](C(=O)N[C@@H](Cc2c[nH]c3ccc(F)cc23)C(=O)N[C@@H](Cc2ccccc2)C(=O)N[C@H](C(=O)N[C@H](CCCCNC(=O)CN2CCN(CC(=O)O)CCN(CC(=O)O)CCN(CC(=O)O)CC2)C(=O)O)C(C)(C)O)NC(=O)[C@H](Cc2ccc(OS(=O)(=O)F)cc2)NC(=O)[C@H](C(C)C)NC(=O)[C@H](CC(=O)O)NC(=O)[C@H](CC2CCOCC2)NC(=O)[C@H](CCCCN)NC(=O)CNC(=O)[C@H](C(C)(C)C)NC1=O` [Cpd #389, Ac-hLeu-Y-C-Tbg-G-K-ThpA-D-V-FSY-C-5FW-F-hydroxyVal-dLys(DOTA)-COOH] (Ac-[hLeu]YC[Tle]GK[Ala(4-THP)]DV[Tyr(SO2F)]C[Trp(5-F)]F[Val(3-OH)][dK](DOTA)-OH; disulfide 3-11), the Kd was less than 1 nM.

Same assay, conditions: SPR KD—25° C., 4Ig B7-H3; 25° C. flow cell temperature
`CCCC[C@H](NC(C)=O)C(=O)N[C@@H](Cc1ccc(O)cc1)C(=O)N[C@H]1CSSC[C@@H](C(=O)N[C@@H](Cc2c[nH]c3ccccc23)C(=O)N[C@@H](Cc2ccccc2)C(=O)N[C@H](C(=O)N[C@H](CCCCNC(=O)CN2CCC(CC(=O)O)CCN(CC(=O)O)CCN(CC(=O)O)CC2)C(N)=O)[C@@H](C)O)NC(=O)[C@H](Cc2ccc(O)cc2)NC(=O)[C@H](C(C)C)NC(=O)[C@H](CC(=O)O)NC(=O)[C@H](Cc2ccc(O)cc2)NC(=O)[C@H](CCCCN)NC(=O)CNC(=O)[C@H](C(C)C)NC1=O` (stereo partly drawn) [Cpd #27, Ac-Nle-Y-C-V-G-K-Y-D-V-Y-C-W-F-Thr-dLys(DOTA)-CONH2] (Ac-[Nle]YCVGKYDVYCWFT[dK](X5)-NH2; disulfide 3-11) showed a Kd of 1 to 10 nM.
Compound `CC(=O)N[C@@H](CCC(C)C)C(=O)N[C@@H](Cc1ccc(O)cc1)C(=O)N[C@H]1CSSC[C@@H](C(=O)N[C@@H](Cc2c[nH]c3ccccc23)C(=O)N[C@@H](Cc2ccccc2)C(=O)N[C@H](C(=O)N[C@H](CCCCNC(=O)CN2CCN(CC(=O)O)CCN(CC(=O)O)CCN(CC(=O)O)CC2)C(N)=O)[C@@H](C)O)NC(=O)[C@H](Cc2ccc(O)cc2)NC(=O)[C@H](C(C)C)NC(=O)[C@H](CC(=O)O)NC(=O)[C@H](Cc2ccc(O)cc2)NC(=O)[C@H](CCCCN)NC(=O)CNC(=O)[C@H](C(C)C)NC1=O` [Cpd #67, Ac-hLeu-Y-C-V-G-K-Y-D-V-Y-C-W-F-Thr-dLys(DOTA)-CONH2] (Ac-[hLeu]YCVGKYDVYCWFT[dK](DOTA)-NH2; disulfide 3-11) has a Kd of 1 to 10 nM.
With `CC(C)CC[C@H](NC(=O)COCCOCCOCCOCCNC(=O)CN1CCN(CC(=O)O)CCN(CC(=O)O)CCN(CC(=O)O)CC1)C(=O)N[C@@H](Cc1ccc(O)cc1)C(=O)N[C@H]1CSSC[C@@H](C(=O)N[C@@H](Cc2c[nH]c3ccc(F)cc23)C(=O)N[C@@H](Cc2ccccc2)C(=O)N2CCC[C@H]2C(=O)O)NC(=O)[C@H](Cc2ccc(O)cc2)NC(=O)[C@H](C(C)C)NC(=O)[C@H](CC(=O)O)NC(=O)[C@H](CC2CCOCC2)NC(=O)[C@H](CCCCN)NC(=O)CNC(=O)[C@H](C(C)(C)C)NC1=O` [Cpd #306, DOTA-PEG4-hLeu-Y-C-Tbg-G-K-ThpA-D-V-Y-C-5FW-F-Pro-COOH] ({DOTA}-[NH(CH2CH2O)4CH2CO][hLeu]YC[Tle]GK[Ala(4-THP)]DVYC[Trp(5-F)]FP-OH; disulfide 4-12) the Kd was 10 to 100 nM.

Same assay, conditions: SPR KD—37° C., 4Ig B7-H3; 37° C. flow cell temperature
`CC(=O)N[C@@H](CCC(C)C)C(=O)N[C@@H](Cc1ccc(O)cc1)C(=O)N[C@H]1CSSC[C@@H](C(=O)N[C@@H](Cc2c[nH]c3ccc(F)cc23)C(=O)N[C@@H](Cc2ccccc2)C(=O)N[C@H](C(=O)N[C@H](CCCCNC(=O)CN2CCN(CC(=O)O)CCN(CC(=O)O)CCN(CC(=O)O)CC2)C(=O)O)C(C)(C)O)NC(=O)[C@H](Cc2ccc(O)cc2)NC(=O)[C@H](C(C)C)NC(=O)[C@H](CC(=O)O)NC(=O)[C@H](CC2CCC(O)CC2)NC(=O)[C@H](CC2CCNCC2)NC(=O)CNC(=O)[C@H](C(C)(C)C)NC1=O` (single isomer, unassigned) [compound 479, Ac-hLeu-Y-C-Tbg-G-PipAla-4OHCha(pk1)-D-V-Y-C-5FW-F-hydroxyVal-dLys(DOTA)-COOH] showed a Kd of less than 1 nM.
`CCCC[C@H](NC(C)=O)C(=O)N[C@@H](Cc1ccc(O)cc1)C(=O)N[C@H]1CSSC[C@@H](C(=O)N[C@@H](Cc2c[nH]c3ccccc23)C(=O)N[C@@H](Cc2ccccc2)C(=O)N[C@H](C(=O)N[C@H](CCCCNC(=O)CN2CCC(CC(=O)O)CCN(CC(=O)O)CCN(CC(=O)O)CC2)C(N)=O)[C@@H](C)O)NC(=O)[C@H](Cc2ccc(O)cc2)NC(=O)[C@H](C(C)C)NC(=O)[C@H](CC(=O)O)NC(=O)[C@H](Cc2ccc(O)cc2)NC(=O)[C@H](CCCCN)NC(=O)CNC(=O)[C@H](C(C)C)NC1=O` (stereo partly drawn) [Cpd #27, Ac-Nle-Y-C-V-G-K-Y-D-V-Y-C-W-F-Thr-dLys(DOTA)-CONH2] (Ac-[Nle]YCVGKYDVYCWFT[dK](X5)-NH2; disulfide 3-11) was tested, and the Kd was 1 to 10 nM.
